The numbers were not newly measured in US20240082165A1, “METHODS AND COMPOSITIONS FOR PRECISION RELEASE OF PROBIOTICS TO IMPROVE HUMAN HEALTH” (SEED HEALTH INC., priority 2021, published 2024), which cites them from elsewhere.

For data set [1] the following is noted: delivered directly in the colon, overweight individuals.
For data set [2] the following is noted: synthesized ligand, mice.

Take `CCC(=O)O` [propionate]: in data set [1], the “energy intake, adiposity, liver lipid, plasma PYY and GLP-1” value was “reduced energy intake, adiposity, and lipid liver content, and increased plasma levels of peptide YY (PYY) and glucagon-like peptide 1 (GLP-1)”.

Take M-tri-Lys: in data set [2], the protection from colitis result is reported as “protected mice from colitis in a NOD2-dependent but MyD88-independent manner”.
